Assay results from the supplement of paper PMC10307832.

Each cell line was assayed with Cc1ccc(C(=O)Nc2ccc(CN3CCN(C)CC3)c(C(F)(F)F)c2)cc1C#Cc1cnc2cccnn12 [Ponatinib] + CCNC(=O)c1noc(-c2cc(C(C)C)c(O)cc2O)c1-c1ccc(CN2CCOCC2)cc1 [Luminespib] (partner 0.01 µM) (assay: relative viability (nuclei count vs DMSO), 5 days (fraction); higher = more cells survive). Settings: first compound 0.2 µM.
Outline: (§1)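 Lung cancer cell lines in 1536-well plates were dosed by pin tool the day after seeding, either with one drug alone or with a fixed anchor-drug dose plus five library-drug doses (not always all listed) in √10 steps. After 5 days, cells were fixed and their nuclei stained in one step (final 0.05% Triton X-100, 1% formaldehyde, 1 ug/ml Hoechst), then counted on 4× images. Relative viability is the nuclei count in treated wells divided by that in vehicle wells. Values are medians of duplicate plates.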

Cell Line	relative viability
NCI-H1437	1.09
NCI-H1755	0.359
NCI-H2023	0.543
HCC-15	0.212
NCI-H1944	0.743
PC-3 [JPC-3]	0.668
EKVX	0.871
LC-2-ad	0.855
NCI-H2170	0.646
NCI-H1975	0.165
SK-LU-1	0.175
ABC-1	0.239
SK-MES-1	0.745
NCI-H661	0.927
RERF-LC-KJ	1.21

What follows are cell lines tested with Cc1ccc(C(=O)Nc2ccc(CN3CCN(C)CC3)c(C(F)(F)F)c2)cc1C#Cc1cnc2cccnn12 [Ponatinib] + Cc1nc(Nc2ncc(C(=O)Nc3c(C)cccc3Cl)s2)cc(N2CCN(CCO)CC2)n1 [Dasatinib] (partner 0.075 µM) in the same assay as above. Settings: first compound 0.002 µM.
Outline: as §1

Cell Line	relative viability
NCI-H460	0.45
NCI-H727	0.322
NCI-H1734	0.496
NCI-H520	0.205
NCI-H2405	0.17
SW 1573	0.451
NCI-H1793	0.37
201T	0.61
NCI-H1915	0.308
HCC-827	0.241
LXF-289	0.26
NCI-H23	0.667
NCI-H650	0.37
CAL-12T	0.48
NCI-H1651	0.398
EPLC-272H	0.359
NCI-H2228	0.372

Cell Line	relative viability
NCI-H1355	0.651
NCI-H322M	0.263
NCI-H1437	0.316
NCI-H1755	0.453
NCI-H2023	0.494
HCC-15	0.585
NCI-H1944	0.218
PC-3 [JPC-3]	0.99
EKVX	0.56
LC-2-ad	0.286
NCI-H2170	0.46
NCI-H1975	0.28
SK-LU-1	0.19
ABC-1	0.465
SK-MES-1	0.32
NCI-H661	0.786
RERF-LC-KJ	0.707

Same assay, conditions: first compound 0.006325 µM

Cell Line	relative viability
NCI-H460	0.536
NCI-H727	0.497
NCI-H1734	0.469
NCI-H520	0.201
NCI-H2405	0.206
SW 1573	0.507
NCI-H1793	0.36
201T	0.593
NCI-H1915	0.33
HCC-827	0.344
LXF-289	0.275
NCI-H23	0.748
NCI-H650	0.456
CAL-12T	0.37
NCI-H1651	0.435
EPLC-272H	0.33
NCI-H2228	0.515

Cell Line	relative viability
NCI-H1355	0.714
NCI-H322M	0.244
NCI-H1437	0.382
NCI-H1755	0.388
NCI-H2023	0.522
HCC-15	0.61
NCI-H1944	0.21
PC-3 [JPC-3]	0.981
EKVX	0.624
LC-2-ad	0.298
NCI-H2170	0.591
NCI-H1975	0.355
SK-LU-1	0.178
ABC-1	0.614
SK-MES-1	0.413
NCI-H661	0.965
RERF-LC-KJ	0.824

Same assay, conditions: first compound 0.06325 µM

Cell Line	relative viability
NCI-H460	0.584
NCI-H727	0.338
NCI-H1734	0.42
NCI-H520	0.162
NCI-H2405	0.187
SW 1573	0.466
NCI-H1793	0.348
201T	0.593
NCI-H1915	0.27
HCC-827	0.296
LXF-289	0.26
NCI-H23	0.867
NCI-H650	0.492
CAL-12T	0.365
NCI-H1651	0.451
EPLC-272H	0.376
NCI-H2228	0.462

Cell Line	relative viability
NCI-H1355	0.81
NCI-H322M	0.232
NCI-H1437	0.36
NCI-H1755	0.362
NCI-H2023	0.807
HCC-15	0.828
NCI-H1944	0.221
PC-3 [JPC-3]	1.12
EKVX	0.502
LC-2-ad	0.313
NCI-H2170	0.561
NCI-H1975	0.318
SK-LU-1	0.172
ABC-1	0.539
SK-MES-1	0.455
NCI-H661	0.987
RERF-LC-KJ	0.93

Same assay, conditions: first compound 0.2 µM

Cell Line	relative viability
NCI-H460	0.462
NCI-H727	0.565
NCI-H1734	0.377
NCI-H520	0.139
NCI-H2405	0.202
SW 1573	0.485
NCI-H1793	0.352
201T	0.461
NCI-H1915	0.267
HCC-827	0.248
LXF-289	0.195
NCI-H23	0.726
NCI-H650	0.411
CAL-12T	0.219
NCI-H1651	0.355
EPLC-272H	0.279
NCI-H2228	0.393

Cell Line	relative viability
NCI-H1355	0.668
NCI-H322M	0.253
NCI-H1437	0.357
NCI-H1755	0.385
NCI-H2023	0.409
HCC-15	0.61
NCI-H1944	0.202
PC-3 [JPC-3]	0.917
EKVX	0.483
LC-2-ad	0.256
NCI-H2170	0.491
NCI-H1975	0.267
SK-LU-1	0.137
ABC-1	0.629
SK-MES-1	0.33
NCI-H661	0.819
RERF-LC-KJ	0.844

What follows are cell lines tested with Cc1ccc(C(=O)Nc2ccc(CN3CCN(C)CC3)c(C(F)(F)F)c2)cc1C#Cc1cnc2cccnn12 [Ponatinib] + O=C(CCCCCCC(=O)Nc1ccccc1)NO [Vorinostat] (partner 1 µM) in the same assay as above. Settings: first compound 0.002 µM.
Outline: as §1

Cell Line	relative viability
NCI-H460	0.665
NCI-H727	1.08
NCI-H1734	0.763
NCI-H520	0.686
NCI-H2405	0.896
SW 1573	0.564
NCI-H1793	0.678
201T	0.965
NCI-H1915	0.457
HCC-827	0.736
LXF-289	0.646
NCI-H23	0.504
NCI-H650	0.3
CAL-12T	0.958
NCI-H1651	0.507
EPLC-272H	0.461
NCI-H2228	0.658

Cell Line	relative viability
NCI-H1355	0.564
NCI-H322M	0.882
NCI-H1437	0.859
NCI-H1755	0.685
NCI-H2023	0.661
HCC-15	0.826
NCI-H1944	0.519
EKVX	0.762
LC-2-ad	0.653
NCI-H2170	0.679
NCI-H1975	0.669
SK-LU-1	0.699
ABC-1	0.786
SK-MES-1	0.999
NCI-H661	0.735
RERF-LC-KJ	0.601

Same assay, conditions: first compound 0.006325 µM

Cell Line	relative viability
NCI-H460	0.657
NCI-H727	1.09
NCI-H1734	0.777
NCI-H520	0.59
NCI-H2405	0.906
SW 1573	0.737
NCI-H1793	0.701
201T	0.992
NCI-H1915	0.49
HCC-827	0.78
LXF-289	0.746
NCI-H23	0.588
NCI-H650	0.441
CAL-12T	0.666
NCI-H1651	0.579
EPLC-272H	0.525
NCI-H2228	0.588

Cell Line	relative viability
NCI-H1355	0.604
NCI-H322M	0.823
NCI-H1437	0.858
NCI-H1755	0.777
NCI-H2023	0.634
HCC-15	0.829
NCI-H1944	0.637
PC-3 [JPC-3]	0.703
EKVX	0.822
LC-2-ad	0.667
NCI-H2170	0.808
NCI-H1975	0.71
SK-LU-1	0.76
ABC-1	1.06
SK-MES-1	1.08
NCI-H661	0.775
RERF-LC-KJ	0.767

Same assay, conditions: first compound 0.06325 µM

Cell Line	relative viability
NCI-H460	0.74
NCI-H727	1.21
NCI-H1734	0.914
NCI-H520	0.663
NCI-H2405	1.01
SW 1573	0.835
NCI-H1793	0.846
201T	1.05
NCI-H1915	0.469
HCC-827	0.821
LXF-289	0.732
NCI-H23	0.607
NCI-H650	0.444
CAL-12T	0.864
NCI-H1651	0.602
EPLC-272H	0.579
NCI-H2228	0.7

Cell Line	relative viability
NCI-H1355	0.677
NCI-H322M	0.833
NCI-H1437	0.938
NCI-H1755	0.72
NCI-H2023	0.851
HCC-15	0.949
NCI-H1944	0.693
PC-3 [JPC-3]	0.868
EKVX	0.927
LC-2-ad	0.626
NCI-H2170	0.843
NCI-H1975	0.688
SK-LU-1	0.832
ABC-1	0.988
SK-MES-1	1.36
NCI-H661	0.831
RERF-LC-KJ	0.881

Same assay, conditions: first compound 0.2 µM

Cell Line	relative viability
NCI-H460	0.664
NCI-H727	1.09
NCI-H1734	0.773
NCI-H520	0.499
NCI-H2405	0.822
SW 1573	0.575
NCI-H1793	0.686
201T	0.939
NCI-H1915	0.491
HCC-827	0.801
LXF-289	0.793
NCI-H23	0.634
NCI-H650	0.447
CAL-12T	0.876
NCI-H1651	0.601
EPLC-272H	0.545
NCI-H2228	0.575

Cell Line	relative viability
NCI-H1355	0.615
NCI-H322M	0.741
NCI-H1437	0.901
NCI-H1755	0.82
NCI-H2023	0.593
HCC-15	0.809
NCI-H1944	0.679
PC-3 [JPC-3]	0.898
EKVX	0.826
LC-2-ad	0.591
NCI-H2170	0.781
NCI-H1975	0.579
SK-LU-1	0.702
ABC-1	0.994
SK-MES-1	1.08
NCI-H661	0.819
RERF-LC-KJ	0.635
